Legend:
Test in all cases: Field trial, post-emergence weed control, visual percent control
Type in all cases: in vivo
[1] = test system: ARTAB: absinth wormwood (Artemisia absinthium); details: 47 DAA, MB, premix 6.5 + 100 (106.5) g ae/ha, MCPA ester 420 g ae/ha, alone or combined
Description: (§1) Nine small plot field trials were established across various ecozones in Alberta, Saskatchewan, Manitoba and Ontario, Canada, between 2011 and 2014 to evaluate potential synergy between 1) halauxifen-methyl (100 grams acid equivalent per kilogram (g ae/kg)), fluroxypyr-meptyl as Starane II EC (333 grams acid equivalent per liter (g ae/L) fluroxypyr), and MCPA 2-ethylhexyl ester (MCPA ester; 600 g ae/L), 2) the halauxifen-methyl+fluroxypyr premix (16.25 g ae/L halauxifen-methyl and 250 g ae/L fluroxypyr-meptyl) and MCPA ester (600 g ae/L), and 3) halauxifen-methyl (100 g ae/kg), fluroxypyr-meptyl as Starane II EC (333 g ae/L fluroxypyr), and 2,4-D 2-ethylhexyl ester (2,4-D ester; 660 g ae/L). In trials evaluating synergy between halauxifen-methyl, fluroxypyr-meptyl, and MCPA ester, actives were applied individually at rates of 6.5, 100, and 420 grams acid equivalent per hectare (g ae/ha), respectively, and in a three-way combination at identical rates. When applied individually, halauxifen-methyl was applied in all trials with Turbocharge adjuvant (50% mineral oil/39.5% surfactant blend) at 0.5% volume per volume (v/v). In trials evaluating synergy between the halauxifen-methyl+fluroxypyr premix, and MCPA ester, premix and MCPA ester were applied individually at rates of 82 g ae/ha (5 g ae/ha halauxifen-methyl+77 g ae/ha fluroxypyr) or 106.5 g ae/ha (6.5 g ae/ha halauxifen-methyl+100 g ae/ha fluroxypyr), and 350 or 420 g ae/ha MCPA ester, respectively, and in a two-way combination at rates of 82 g ae/ha premix+350 g ae/ha MCPA ester or […] premix+420 g ae/ha MCPA ester. When applied individually, the halauxifen-methyl+fluroxypyr premix was applied at a rate of 106.5 g ae/ha without an adjuvant, or at a rate of 82 g ae/ha with Turbocharge adjuvant at 0.5% v/v. In trials evaluating synergy between halauxifen-methyl, fluroxypyr-meptyl, and 2,4-D ester, actives were applied individually at rates of 5, 77, and 350 grams acid equivalent per hectare (g ae/ha), respectively, and in a three-way combination at identical rates. When applied individually, halauxifen-methyl was applied with Intake adjuvant (586 grams per liter (g/L) paraffinic oil/242 g/L alkoxylated alcohol non-ionic surfactants) at 1% volume per volume (v/v).
(§2) Trials were established as randomized complete blocks (RCBD) with four replicates. Individual treatments were 2-3 meters (m) wide and 10-11 m long. An untreated control was included in each trial. All trial sites had naturally occurring populations of weeds, which in some trials were augmented with additional weed seeds during trial establishment.
(§3) Herbicides were applied with backpack, bicycle, or tractor-mounted sprayers using carbon dioxide (CO2) as a propellant. All sprayers delivered a uniform spray pattern that provided thorough coverage of the foliage using a water volume of 100-200 liters per hectare (L/ha). All herbicides were applied post-emergence in the spring to early-summer. At the time of herbicide applications, spring wheat, durum wheat, and winter wheat crops were at the four-leaf to three-node stage. Broadleaf weeds were at the seedling stage at the time of herbicide applications.
(§4) Foliar damage to target pest plants was visually assessed as percent control, compared to an untreated control plot. The assessments were based on a percent visual reduction in pest plant biomass and/or stand reduction of weed population. In general, three-to-four replicates were assessed for each treatment, and the results for each experiment (trial) are presented as overall average control. The efficacy of all treatments was assessed at 13-22 days after application (DAA) for an early season rating, 23-39 DAA for a mid-season rating, and 41-84 DAA for a late-season rating. The data were statistically analyzed using various statistical methods, generally including a Tukey's HSD Factorial Analysis of Variance with a significance level of 5%. […]

[2] = test system: STEME: chickweed, common (Stellaria media); details: 59 DAA, AB
Description: as §1, §2, §3, §4

[3] = test system: POLCO: wild buckwheat (Polygonum convolvulus); details: premix 6.5 + 100 (106.5) g ae/ha, MCPA ester 420 g ae/ha, alone or combined
Description: as §1, §2, §3, §4

[4] = test system: BRSNN: canola, volunteer (Brassica napus); details: SK
Description: as §1, §2, §3, §4

[5] = test system: POLPE: lady's-thumb (Polygonum persicaria)
Description: as §1, §2, §3, §4

[6] = test system: AMBEL: ragweed, common (Ambrosia artemisiifolia); details: 28 DAA, ON, premix 5 + 77 (82) g ae/ha, MCPA ester 350 g ae/ha, alone or combined
Description: as §1, §2, §3, §4

[7] = test system: GAETE: hemp-nettle (Galeopsis tetrahit); details: 14 DAA, AB
Description: as §1, §2, §3, §4

[8] = test system: TRFPR: red clover (Trifolium pratense); details: 84 DAA, ON, halauxifen-methyl 5, fluroxypyr-meptyl 77, 2,4-D ester 350 g ae/ha, each alone or three-way combination
Description: as §1, §2, §3, §4

[9] = test system: AMBTR: giant ragweed (Ambrosia trifida); details: 49 DAA, ON, halauxifen-methyl 5, fluroxypyr-meptyl 77, 2,4-D ester 350 g ae/ha, each alone or three-way combination
Description: as §1, §2, §3, §4

[10] = halauxifen-methyl 6.5, fluroxypyr-meptyl 100, MCPA ester 420 g ae/ha, each alone or three-way combination
[11] = premix 6.5 + 100 (106.5) g ae/ha, MCPA ester 420 g ae/ha, alone or combined
[12] = 14 DAA, halauxifen-methyl 6.5, fluroxypyr-meptyl 100, MCPA ester 420 g ae/ha, each alone or three-way combination
[13] = 33 DAA, halauxifen-methyl 6.5, fluroxypyr-meptyl 100, MCPA ester 420 g ae/ha, each alone or three-way combination
[14] = 14 DAA, AB, halauxifen-methyl 6.5, fluroxypyr-meptyl 100, MCPA ester 420 g ae/ha, each alone or three-way combination
[15] = 49 DAA, AB, halauxifen-methyl 6.5, fluroxypyr-meptyl 100, MCPA ester 420 g ae/ha, each alone or three-way combination
[16] = 57 DAA, AB, halauxifen-methyl 6.5, fluroxypyr-meptyl 100, MCPA ester 420 g ae/ha, each alone or three-way combination
[17] = 59 DAA, AB, halauxifen-methyl 6.5, fluroxypyr-meptyl 100, MCPA ester 420 g ae/ha, each alone or three-way combination
[18] = SK, 49 DAA or 57 DAA, halauxifen-methyl 6.5, fluroxypyr-meptyl 100, MCPA ester 420 g ae/ha, each alone or three-way combination

Row | Compound | Obs: Observed percent weed control [2, 10] | Obs: Observed percent weed control [4, 12] | Obs: Observed percent weed control [4, 13] | Obs: Observed percent weed control [5, 14] | Obs: Observed percent weed control [5, 15] | Obs: Observed percent weed control [5, 16] | Obs: Observed percent weed control [5, 17] | Obs: Observed percent weed control [5, 18] | Obs: Observed percent weed control [7, 10] | Obs: Observed percent weed control [8] | Obs: Observed percent weed control [9] | other results
1 | CCCCC(CC)COC(=O)COc1ccc(Cl)cc1C (centres unmarked) [MCPA ester, 2-ethylhexyl 2-(4-chloro-2-methylphenoxy)acetate] | 0% | 80% | 95% | 0% | 0% | 0% | 35% | 30% | 31% | – | – | Obs: Observed percent weed control [1]: 0%; Obs: Observed percent weed control [2, 11]: 0%; Obs: Observed percent weed control ([3]; 35 DAA, MB): 0%; Obs: Observed percent weed control ([3]; 47 DAA, MB): 0%; Obs: Observed percent weed control ([3]; 63 DAA, AB): 43%; Obs: Observed percent weed control ([4]; 33 DAA, premix 6.5 + 100 (106.5) g ae/ha, MCPA ester 420 g ae/ha, alone or combined): 95%; Obs: Observed percent weed control ([5]; 14 DAA, MB, premix 5 + 77 (82) g ae/ha, MCPA ester 350 g ae/ha, alone or combined): 38%; Obs: Observed percent weed control ([5]; 14 DAA, MB, premix 6.5 + 100 (106.5) g ae/ha, MCPA ester 420 g ae/ha, alone or combined): 38%; Obs: Observed percent weed control ([5]; 34 DAA, MB, premix 5 + 77 (82) g ae/ha, MCPA ester 350 g ae/ha, alone or combined): 40%; Obs: Observed percent weed control ([5]; 34 DAA, MB, premix 6.5 + 100 (106.5) g ae/ha, MCPA ester 420 g ae/ha, alone or combined): 40%; Obs: Observed percent weed control ([5]; 49 DAA (likely), MB, premix 6.5 + 100 (106.5) g ae/ha, MCPA ester 420 g ae/ha, alone or combined): 27%; Obs: Observed percent weed control ([5]; 49 DAA, AB, premix 6.5 + 100 (106.5) g ae/ha, MCPA ester 420 g ae/ha, alone or combined): 0%; Obs: Observed percent weed control ([5]; 54 DAA, MB, premix 6.5 + 100 (106.5) g ae/ha, MCPA ester 420 g ae/ha, alone or combined): 38%; Obs: Observed percent weed control ([5]; 57 DAA, AB, premix 6.5 + 100 (106.5) g ae/ha, MCPA ester 420 g ae/ha, alone or combined): 0%; Obs: Observed percent weed control ([5]; 59 DAA, AB, premix 6.5 + 100 (106.5) g ae/ha, MCPA ester 420 g ae/ha, alone or combined): 35%; Obs: Observed percent weed control [6]: 15%; Obs: Observed percent weed control [7, 11]: 31%
2 | CCCCC(CC)COC(=O)COc1ccc(Cl)cc1Cl (centres unmarked) [2,4-D ester, 2-ethylhexyl(2,4-dichlorophenoxy)acetate] | – | – | – | – | – | – | – | – | – | 7.4% | 83% | –
3 | CCCCCCC(C)OC(=O)COc1nc(F)c(Cl)c(N)c1Cl (centres unmarked) [Fluroxypyr-meptyl, 1-methylheptyl 2-[(4-amino-3,5-dichloro-6-fluoro-2-pyridinyl)oxy]acetate] | 15% | 30% | 20% | 0% | 0% | 23% | 61% | 25% | 39% | 12.4% | 21.7% | –
4 | COC(=O)c1nc(-c2ccc(Cl)c(OC)c2F)cc(N)c1Cl [Halauxifen-methyl, methyl 4-amino-3-chloro-6-(4-chloro-2-fluoro-3-methoxyphenyl)-2-pyridinecarboxylate] | 24% | 20% | 15% | 0% | 0% | 0% | 33% | 10% | 79% | 15% | 20% | –

— patent publication US20150196030A1, “HERBICIDAL COMPOSITION CONTAINING 4-AMINO-3-CHLORO-6-(4-CHLORO-2-FLUORO-3-METHOXYPHENYL) PYRIDINE-2-CARBOXYLIC ACID OR DERIVATIVES THEREOF, FLUROXYPYR OR DERIVATIVES THEREOF, AND PHENOXY AUXINS OR DERIVATIVES THEREOF” (DOW AGROSCIENCES LLC, priority 2014, published 2015)
